# In patent US5958947A, “DNA-affinic hypoxia selective cytotoxins” (priority 1996, dated 1999):
# “And” between values parts separate entries of the source, which are not always exact repeats. Equal entries are not always repeated. Structures can show the parent of a compound that is named as a salt. Where two headings read alike, the source gives them in different places.
# What was measured:
# [1] = test system: V79 Chinese hamster lung cells; settings: intracellular concentration for an SER of 1.6, hypoxic cells; no experiment described; cited from earlier work
# [2] = in vivo; cited from earlier work
# [3] = test system: human Topo II; test: Topoisomerase II interaction (decatenation of kinetoplast DNA); assay type: biochemical; settings: up to 1 mM
# Description: A Topo II assay kit (TopoGEN, Inc., Columbus, Ohio) also was used to assay the topoisomerase II--THNLA-1 interaction. […] Individual reaction mixtures were heated for 30 minutes at 37° C. on a heating block, and then 2 μl of a 10% SDS-proteinase K solution was added to each reaction mixture. The resulting reaction mixtures then were heated for an additional 30 minutes at 37° C. After addition of a 0.1 volume of loading buffer, the reaction mixtures were extracted with CHCl3 prior to submarine electrophoresis on a 1% agarose gel containing ethidium bromide (0.5 μg/ml).
# [4] = test system: supercoiled DNA; test: DNA intercalation by agarose gel electrophoresis (mobility of supercoiled DNA); assay type: binding; settings: electrophoretic gel, up to millimolar concentrations
# Excerpt: An agarose gel electrophoresis technique was used to determine whether THNLA-1 intercalates DNA. Compounds that strongly intercalate DNA retard DNA mobility during agarose gel electrophoresis due to unwinding and extension of the dsDNA.
# [5] = Acute aerobic and hypoxic cytotoxicity (colony formation); assay type: cell-based, Chinese hamster; settings: chinese hamster, aerobic v79 cells, V79 cells, aerobic, 1 hour, 37° C.; 50% inhibition of clonogenicity
# Description: (§1) Samples of V79 Chinese hamster lung cells used in the following experiments were prepared as follows. V79 cells, exponentially growing as monolayer cultures in RPMI 1640 medium (Mediatech) supplemented with 10% fetal calf serum, were trypsinized, centrifuged for 5 min, harvested, then suspended in 25 ml Erlenmeyer flasks fitted with rubber caps at 5×10^5 cells/ml (5 ml). Individual flasks either were shaken (100 rpm) at 37° C. under aerobic conditions or made hypoxic by gassing with a 95% N2 (nitrogen)/5% CO2 (carbon dioxide) humidified gas mixture for 1 hour.
# (§2) To determine the fraction of surviving cells, samples were removed, diluted and plated to provide 2×10^2 to 2×10^4 cells/well on 60 mm Linbro multi-well plates (Flow Laboratories, McLean, Virginia). The plates were incubated at 37° C. for 6 days, stained with crystal violet and examined for colony formation. Colonies of 50 cells or greater were counted. Each plotted point in FIGS. 1 and 2 represent the mean of three or four replicate experiments.
# [6] = test system: V79 Chinese hamster lung cells; test: as above; assay type: cell-based; settings: V79 cells, 1 hour, 37° C.; for IC50: Cricetulus griseus, V79, 1 h, hypoxia, 50% inhibition of clonogenicity
# Description: as §1, §2
# [7] = test system: V79 Chinese hamster lung cells; test: Radiosensitization of V79 cells; assay type: cell-based; settings: for EC (SER 1.6): Cricetulus griseus; for maximum SER value: hypoxic V79 cells, 100 μM for THNLA-1, non-toxic concentrations for others; for Therapeutic index (ThI): IC50/A,1h /C1.6: in vitro, V79 cells, hydrochloride
# Description: as §1
# Radiosensitization studies were performed on V79 cells in a manner similar to the acute toxicity experiments, except that the survival fraction was determined after a predetermined radiation dose. […] One Gy is equal to 100 rads, wherein one rad is the quantity of ionizing radiation that results in the absorption of 100 ergs of energy per gram of irradiated material. Hypoxia was maintained throughout irradiation. […] Sensitization enhancement ratios (SER) were determined at a 10% survival level. […] The plotted points in FIGS. 3 and 4 represent the mean of 2 or 3 replicate experiments.
# [8] = biological target: T1, calf thymus Topo I (Bos taurus, UniProt F1MN93); test: Topoisomerase I interaction (relaxation of supercoiled DNA); assay type: biochemical
# T1 construct: purchased TopoGEN, Inc., Columbus, Ohio; host or cells: calf thymus
# T1 sequence (F1MN93 1-767): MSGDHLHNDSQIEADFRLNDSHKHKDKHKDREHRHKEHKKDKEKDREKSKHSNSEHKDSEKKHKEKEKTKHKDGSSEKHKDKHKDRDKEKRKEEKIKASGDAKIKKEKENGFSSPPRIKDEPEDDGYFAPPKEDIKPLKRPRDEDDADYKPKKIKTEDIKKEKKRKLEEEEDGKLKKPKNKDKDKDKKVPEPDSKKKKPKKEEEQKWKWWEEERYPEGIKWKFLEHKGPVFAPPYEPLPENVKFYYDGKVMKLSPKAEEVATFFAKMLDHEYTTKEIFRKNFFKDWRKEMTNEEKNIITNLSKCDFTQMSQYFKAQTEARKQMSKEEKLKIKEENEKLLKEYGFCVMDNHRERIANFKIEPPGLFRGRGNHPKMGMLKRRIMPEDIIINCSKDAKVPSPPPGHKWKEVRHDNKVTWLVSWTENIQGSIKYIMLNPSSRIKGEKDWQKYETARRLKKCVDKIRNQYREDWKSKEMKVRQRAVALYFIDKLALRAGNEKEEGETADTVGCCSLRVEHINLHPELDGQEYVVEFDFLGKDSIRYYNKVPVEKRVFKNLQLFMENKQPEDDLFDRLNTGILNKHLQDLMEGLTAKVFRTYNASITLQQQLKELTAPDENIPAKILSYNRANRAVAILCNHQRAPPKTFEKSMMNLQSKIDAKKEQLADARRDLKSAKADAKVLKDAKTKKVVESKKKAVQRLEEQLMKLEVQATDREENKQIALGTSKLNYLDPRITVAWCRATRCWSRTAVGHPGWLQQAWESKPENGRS
# Description: In particular, a Topo I drug screening kit (TopoGEN, Inc., Columbus, Ohio) was used to assay the topoisomerase I THNLA-1 interaction. […] Camptothecin is a Topoisomerase I poison used as an anticancer drug. Camptothecin stabilizes the Topo I-DNA cleavable complex, and therefore prevents the resealing of DNA by Topo-I.
# Individual reaction mixtures were heated for 30 minutes at 37° C. on a heating block, and then 2 μl of 10% SDS - proteinase K solution was added to each reaction mixture. The resulting reaction mixtures then were heated for an additional 30 minutes at 37° C. The reaction mixtures in a loading buffer were extracted with CHCl3 prior to submarine electrophoresis on a 1% agarose gel. The DNA bands were observed visually by staining with ethidium bromide (0.5 μg/ml).
# [9] = Partition coefficient in octanol/water; assay type: physicochemical
# Description: The partition coefficient of the hypoxia selective cytotoxins of the present invention were determined by the method of T. Fujita et al., J. Am. Chem. Soc., 86, 5175-5180 (1964), incorporated herein by reference.
# [10] = test system: V79 cells; test: Isoeffective to the oxygen dose (IsD); assay type: cell-based, Chinese hamster; settings: Cricetulus griseus, V79, 1 h
# Excerpt: The survival fraction under hypoxic conditions (plotted versus compound concentration) meets the aerobic survival fraction (radiation toxicity) at the IsD. The IsD value is a useful indicator of the overall potency of a compound as a sensitizer and cytotoxin of hypoxic cells. IsD is especially useful when comparing different compounds for hypoxic cytotoxicity and radiosensitizing efficacy.
# FIGS. 5 and 6 illustrate the IsD at 7.5 Gy (FIG. 5A) and 20 Gy (FIG. 5B). FIGS. 5A and 6A include a comparison to the prior art NLA-1 compound. V79 cells were irradiated at 7.5 Gy or 20 Gy after a 1 hour exposure under hypoxia (symbols) or air (straight line), at various drug concentrations. No toxicity or radiosensitization for any tested compound was observed under aerobic conditions over the tested concentration ranges. IsD values were calculated from the intersections of the survival fractions of the hypoxic curves with the survival fraction in air. All data points in FIGS. 5 and 6 represent the mean of two replicate experiments.
# [11] = Water solubility
# [12] = test system: V79 cells; test: Chemosensitization to L-PAM or cis-DDP in V79 cells; assay type: cell-based, Chinese hamster; settings: V79 cells
# Description: L-PAM, also known as phenylalanine mustard and available from Sigma Chem. Co., St. Louis, Mo., first was dissolved in an ethanolic solution of HCl (0.5N). The ethanolic HCl solution was buffered with propylene glycol in a 1:9 ratio of ethanolic HCl solution to propylene glycol, and finally diluted 100 fold with suspension medium. cis-DDP, a platinum-based chemotherapeutic agent available from Sigma Chem. Co., St. Louis, Mo., was dissolved in water to a predetermined concentration.
# Experiments using a simultaneous addition of the sensitizer and chemotherapeutic agent for 1 hour at 37° C. under aerobic conditions were also performed.
# In all experiments, controls for the hypoxic cytotoxicity of the sensitizer and the toxicity of the chemotherapeutic alone were included. Survival curves were normalized for the hypoxic cytotoxicity of sensitizer in order to determine the dose modification factor (DMF), i.e., the ratio of chemotherapeutic agent concentrations required to reduce cell survival to a predetermined level (e.g., 0.5) alone or in combination with a sensitizer. Synergism between the chemotherapeutic agent and the chemosensitizer was determined using the fractional product concept which is applied in instances of independent action of drugs, or by isobologramic analysis. The results of the chemosensitization studies are illustrated in FIGS. 12-15.
# [13] = test system: hypoxic cells; settings: cited from earlier work
# [14] = test system: DNA; settings: cited from earlier work
# [15] = test system: mammalian cell cultures; settings: cited from earlier work
# [16] = cited from earlier work
# [17] = V79, 1 h, read-out: Hypoxic radiosensitizing potency: C1.6, concentration yielding an SER of 1.6, hypoxic V79 cells
# [18] = V79, read-out: Intracellular concentration at C1.6: C1.6i, hypoxic radiosensitization, V79 cells (tables)
structure (smiles),measurement,setting,value
COCC(O)Cn1ccnc1[N+](=O)[O-] (centres unmarked) [MISO],C1.6i of comparison sensitizers,[1],0.70 mM
same,neurotoxicity,[2],significant neurotoxicity
"CN1CCc2nc3ccccc3c(NCCCn3ccnc3[N+](=O)[O-])c2C1 [MeN-THNLA-1, 10-[3-(2-nitroimidazolyl)propylamino]-2-methyl-1,2,3,4-tetrahydro-benzo[b]-1,6-naphthyridine hydrochloride]",inhibition of Topo II-induced decatenation of kinetoplast DNA,[3],did not inhibit the action of Topoisomerase II on kinetoplast DNA
same,effect on mobility of supercoiled DNA,[4],do not affect the mobility of supercoiled DNA
same,IC50 at 1 h,[5],426 µM
same,IC50,[6],196 µM
same,"Hypoxic selectivity (differential aerobic/hypoxic toxicity): IC50/A,1h /IC50/H,1h",[6],2.2
same,EC (SER 1.6),[7]; [17],59 µM
same,EC (SER 1.6),[7]; [18],586 µM
same,maximum SER value,[7],equal to OER
same,"Therapeutic index (ThI): IC50/A,1h /C1.6",[7],about 7
same,relative radiosensitizing potency,[7]; on the basis of C1.6i values,"more potent radiosensitizer than NLA-1, miso and pimonidazole"
same,formation of nicked DNA with Topo I,[8]; in Topo I test,no formation of nicked DNA was observed
same,inhibition of Topo I-induced relaxation,[8]; supercoiled DNA,only partially inhibited Topo I
same,Partition coefficient in octanol/water: PCo/w,[9]; hydrochloride,0.40 and 0.41
same,EC (isoeffective to oxygen at 20 Gy),[10]; read-out: Isoeffective to the oxygen dose at 20 Gy: IsD,~127 µM
same,solubility,[11],~20 mM
"O=[N+]([O-])c1nccn1CCCNc1c2c(nc3ccccc13)CCC2 [NLCPQ-1, 9-[3-(2-nitro-1-imidazolyl)propylamino]cyclopenten[b]quinoline hydrochloride]",IC50 at 1 h,[5],170 µM
same,IC50,[6],22 µM
same,chemosensitization to L-PAM or cis-DDP,[12],strong chemosensitizers
same,EC (SER 1.6),[7]; [17],7 µM
same,EC (SER 1.6),[7]; [18],209 µM
same,maximum SER value,[7],equal to OER
same,"Therapeutic index (ThI): IC50/A,1h /C1.6",[7],25
same,Partition coefficient in octanol/water: PCo/w,[9],0.30
same,logP,[9]; read-out: Partition coefficient in octanol/water: PCo/w (converted),-0.523
same,EC (isoeffective to oxygen at 7.5 Gy),[10]; read-out: Isoeffective to the oxygen dose at 7.5 Gy: IsD(7.5),25.5 µM
same,solubility,[11],~11 mM
O=[N+]([O-])c1nccn1CC(O)CN1CC1 (centres unmarked) [RSU-1069],activity relative to MISO,[13]; experimental systems,substantially greater activity than MISO
same,fold lower toxic concentration for hypoxic versus aerobic cells,[13]; in vitro,~100 fold
O=C(Cn1ccnc1[N+](=O)[O-])NCCO [etanidazole],dose administrable to humans relative to MISO,[2],about a threefold higher dose than MISO
same,neurotoxicity,[2],less neurotoxic
"CN(C)CCCNc1c2ccccc2nc2cccc([N+](=O)[O-])c12 [nitracrine, 1-nitro-acridine]",DNA dissociation kinetics / intercalation,[14],faster dissociation kinetics from DNA than the other nitroacridine isomers
same,potency as radiation sensitizer / hypoxia selective cytotoxin,[15],potent hypoxia selective cytotoxin and a radiation sensitizer
same,potency as radiation sensitizer / hypoxia selective cytotoxin,[15]; listed as 1-nitracrine,twenty times more potent as a sensitizer than other nitracrine isomers tested
same,metabolism in vivo,[16],rapid metabolism
O=[N+]([O-])c1nccn1CC(O)CN1CCCCC1 (centres unmarked) [pimonidazole],C1.6i of comparison sensitizers,[1],0.69 mM
same,dose administrable to humans relative to MISO,[2],total dose limitation similar to MISO
